Results: US20240226062A1, “METHODS AND COMPOSITIONS FOR THE TREATMENT OF DISORDERS CHARACTERIZED BY A KIDINS220 DYSFUNCTION IN A SUBJECT” (priority 2021, published 2024)
One block for each compound: values may come before it.

Legend:
primary cortical neurons [1] = conditions: DL-AP5 preincubation; Lopez-Menendez et al. 2009; cited from earlier work
SNX27-retromer [2] = test: Immunofluorescence of SNX27-retromer localization in primary cortical neurons under NMDA excitotoxicity; assay type: cell-based, rat
Experimental: (§1) Cell culture, treatment and transfection of primary cortical astrocytes, neurons and HEK293T cells. Mouse cortical astrocytes were prepared from cerebral cortices of 0 to 2-day-old mice pups according to standard methods. Cells seeded on plates or glass coverslips coated with poly-L-lysine (10 μg/ml) and laminin (4 μg/ml) at a density of 5×10^4 cells/cm2 in complete DMEM-F12. After 2 additional days (DIV14-16) astrocytes were treated with vehicle (DMSO), 100 nM bafilomycin Al (Sigma Co.; St. Louis, MO, USA) for 16 h or 10 μM R55 (MedKoo Biosciences, Inc.; Morrisville, NC, USA) for 48 h. Neuronal cultures were prepared from cerebral cortex of 19-day-old Wistar rat embryos, as we have previously described (Lopez-Menendez et al. 2019). Neurons were used after 10 days in vitro (DIV) for immunofluorescence and DIV14 for biochemical assays. Neurons were pretreated or treated for different times as indicated: 50 μM NMDA and 10 μM glycine (Sigma Co.; St. Louis, MO, USA); 200 μM DL-AP5 (Tocris; Bristol, UK); 5 μM […]. Excitotoxicity was induced by treatment with the NMDAR coagonists NMDA and glycine (referred as NMDA treatment). DL-AP5 or […] were added 1 h or 48 h before NMDA treatment, respectively. HEK293T cells were cultured and transfected by standard procedures. HEK293T cells and DIV12-14 primary astrocytes were seeded at 50-60% confluence. […]

SNX27-retromer [3] = test: Immunoblot of NMDA-induced degradation of SNX27-retromer components and cargos in primary cortical neurons; assay type: cell-based, rat; conditions: 50 μM NMDA and 10 μM glycine; DL-AP5 (200 μM) added 1 h or R55 (5 μM) 48 h before
Experimental: (§2) Cell culture, treatment and transfection of primary cortical astrocytes, neurons and HEK293T cells. Mouse cortical astrocytes were prepared from cerebral cortices of 0 to 2-day-old mice pups according to standard methods. Cells seeded on plates or glass coverslips coated with poly-L-lysine (10 μg/ml) and laminin (4 μg/ml) at a density of 5×10^4 cells/cm2 in complete DMEM-F12. After 2 additional days (DIV14-16) astrocytes were treated with vehicle (DMSO), 100 nM bafilomycin Al (Sigma Co.; St. Louis, MO, USA) for 16 h or 10 μM R55 (MedKoo Biosciences, Inc.; Morrisville, NC, USA) for 48 h. Neuronal cultures were prepared from cerebral cortex of 19-day-old Wistar rat embryos, as we have previously described (Lopez-Menendez et al. 2019). Neurons were used after 10 days in vitro (DIV) for immunofluorescence and DIV14 for biochemical assays. Neurons were pretreated or treated for different times as indicated: 50 μM NMDA and 10 μM glycine (Sigma Co.; St. Louis, MO, USA); 200 μM DL-AP5 (Tocris; Bristol, UK); 5 μM R55. Excitotoxicity was induced by treatment with the NMDAR coagonists NMDA and glycine (referred as NMDA treatment). DL-AP5 or R55 were added 1 h or 48 h before NMDA treatment, respectively. HEK293T cells were cultured and transfected by standard procedures. HEK293T cells and DIV12-14 primary astrocytes were seeded at 50-60% confluence. Two days later cells were transfected in Opti-MEM by using 0.7 μl of Lipofectamine 2000@ reagent (ThermoFisher Scientific) and 0.7 μg of DNA per 24 multi-well plate, according to the manufacturer's specifications. Cells were fixed and processed for immunofluorescence or washed with PBS to prepare protein extracts for immunoprecipitation experiments.
Preparation of protein extracts, immunoprecipitation, and immunoblot analysis. Protein extracts from mice tissue, primary cell cultures or HEK293T cells were prepared in RIPA by standard methods. Briefly, cultured cells were lysed in RIPA buffer (25 mM Tris-HCl, pH 7.6, 1% Triton X-100, 0.5% sodium deoxycholate, 0.1% SDS, 150 mM NaCl) with protease and phosphatase inhibitors for 30 min at 4° C. Lysates were centrifuged for 30 min at 14,000 rpm at 4° C., and resulting supernatant was considered the total lysate soluble fraction. Different mouse tissues were dissected, frozen in dry ice and homogenized in RIPA buffer as above using potter and Polytron homogenizers. For immunoprecipitation, total lysates were incubated with anti-VPS35 or anti-GFP antibody for 4 h at 4° C., before binding immunocomplexes to protein A sepharose beads for 1 h at 4° C. Beads were washed four times with RIPA buffer before adding Laemli sample buffer. Note that sample boiling was avoided to detect properly AQP4 band by immunoblots. Equal amounts of total lysates or immunoprecipitates were resolved in SDS-PAGE and analysed by immunoblot. Membranes were incubated with different primary and secondary antibodies and immunoreactive bands were detected by ECL (PerkinElmer, Waltham, MA USA). Immunoblot images have been cropped for presentation.
Quantitative and statistical analysis. Immunoblot signals were quantified by densitometric analysis with ImageJ 1.47d software (NIH) and normalized using β-actin, α-tubulin or GFAP band signal intensities. Data were expressed relative to values obtained in their respective untreated controls or WT mice or astrocytes. For immunofluorescence quantitative analysis of mice and human brain samples, fluorescence intensity of specific antibodies was measured at the ependymal barrier of lateral ventricles using ImageJ 1.47d software (NIH). Specific ROIs were defined in each brain section at the ependymal barrier boundaries, identified by DAPI staining of ependymal cell nuclei. In those regions, fluorescence signal above a certain threshold, stablished as background, was quantified. In the case of human brain necropsies, nine randomly selected ROIs were used for the analysis. […]

[4] = tested on: mouse model with plaques and tangles; conditions: AD mouse model, Li et al. 2020; cited from earlier work
[5] = tested on: trimeric Vps35-Vps29-Vps26 core; conditions: Mecozzi et al. 2014; cited from earlier work
SNX27-retromer [6] = target: T1, SNX27-retromer (Mus musculus, UniProt Q9EQH3+Q9QZ88); test: Immunoblot of retromer complex and cargo protein levels in cultured astrocytes treated with R55; assay type: cell-based; conditions: 10 μM R55 for 48 h
T1 construct: endogenous in cells; host or cells: primary mouse cortical astrocytes
Experimental: Cell culture, treatment and transfection of primary cortical astrocytes, neurons and HEK293T cells. Mouse cortical astrocytes were prepared from cerebral cortices of 0 to 2-day-old mice pups according to standard methods. Cells seeded on plates or glass coverslips coated with poly-L-lysine (10 μg/ml) and laminin (4 μg/ml) at a density of 5×10^4 cells/cm2 in complete DMEM-F12. After 2 additional days (DIV14-16) astrocytes were treated with vehicle (DMSO), 100 nM bafilomycin Al (Sigma Co.; St. Louis, MO, USA) for 16 h or 10 μM R55 (MedKoo Biosciences, Inc.; Morrisville, NC, USA) for 48 h. Neuronal cultures were prepared from cerebral cortex of 19-day-old Wistar rat embryos, as we have previously described (Lopez-Menendez et al. 2019). Neurons were used after 10 days in vitro (DIV) for immunofluorescence and DIV14 for biochemical assays. Neurons were pretreated or treated for different times as indicated: 50 μM NMDA and 10 μM glycine (Sigma Co.; St. Louis, MO, USA); 200 μM DL-AP5 (Tocris; Bristol, UK); 5 μM R55. Excitotoxicity was induced by treatment with the NMDAR coagonists NMDA and glycine (referred as NMDA treatment). DL-AP5 or R55 were added 1 h or 48 h before NMDA treatment, respectively. […]
Preparation of protein extracts, immunoprecipitation, and immunoblot analysis. […] Equal amounts of total lysates or immunoprecipitates were resolved in SDS-PAGE and analysed by immunoblot. Membranes were incubated with different primary and secondary antibodies and immunoreactive bands were detected by ECL (PerkinElmer, Waltham, MA USA). […]
Quantitative and statistical analysis. Immunoblot signals were quantified by densitometric analysis with ImageJ 1.47d software (NIH) and normalized using β-actin, α-tubulin or GFAP band signal intensities. […] For immunofluorescence quantitative analysis of mice and human brain samples, fluorescence intensity of specific antibodies was measured at the ependymal barrier of lateral ventricles using ImageJ 1.47d software (NIH). […] In those regions, fluorescence signal above a certain threshold, stablished as background, was quantified. […]

primary cortical neurons [7] = test: Neuronal viability under NMDAR-induced excitotoxicity (MTT reduction assay, MAP2 staining); assay type: cell-based, rat; conditions: neurons incubated with NMDA for 6 h, R55 5 μM added 48 h before
Experimental: as §1

AQP4 = test: Effect of bafilomycin A1 on protein levels in WT and Kidins220^f/f astrocytes (immunofluorescence and immunoblot); assay type: cell-based, mouse; conditions: for AQP4 levels: 100 nM bafilomycin A1 for 16 h
Experimental: as §2
Preparation of protein extracts, immunoprecipitation, and immunoblot analysis. Protein extracts from mice tissue, primary cell cultures or HEK293T cells were prepared in RIPA by standard methods. Briefly, cultured cells were lysed in RIPA buffer (25 mM Tris-HCl, pH 7.6, 1% Triton X-100, 0.5% sodium deoxycholate, 0.1% SDS, 150 mM NaCl) with protease and phosphatase inhibitors for 30 min at 4° C. Lysates were centrifuged for 30 min at 14,000 rpm at 4° C., and resulting supernatant was considered the total lysate soluble fraction. […] Equal amounts of total lysates or immunoprecipitates were resolved in SDS-PAGE and analysed by immunoblot. Membranes were incubated with different primary and secondary antibodies and immunoreactive bands were detected by ECL (PerkinElmer, Waltham, MA USA). […]
Quantitative and statistical analysis. Immunoblot signals were quantified by densitometric analysis with ImageJ 1.47d software (NIH) and normalized using β-actin, α-tubulin or GFAP band signal intensities. […]

[8] = Kidins220^f/f deficient astrocytes, bafilomycin A1 treatment (not shown)

SMILES: NC(CCCP(=O)(O)O)C(=O)O (racemic) [DL-AP5]
neuronal survival (primary cortical neurons [1]): preserves
SNX27-retromer intracellular organization and colocalization of SNX27 and VPS35 (Pearson's correlation coefficient) (SNX27-retromer [2]; neurons pretreated 1 h with 200 μM DL-AP5, then 50 μM NMDA and 10 μM glycine): preserved
NMDA-induced degradation of FAM21 (SNX27-retromer [3]): blocked
NMDA-induced degradation of GluN2B subunit of the NMDAR (SNX27-retromer [3]): decreasing
NMDA-induced degradation of SNX27 (SNX27-retromer [3]): blocked
NMDA-induced degradation of SNX27-retromer cargo Kidins220 (SNX27-retromer [3]): decreasing
cleavage of the calpain substrate spectrin into breakdown products (BDPs) (SNX27-retromer [3]): reduced

SMILES: Cl.N=C(N)SCc1cccs1 [R33, thiophen-2-ylmethyl carbamimidothioate hydrochloride]
VPS35 levels [4]: elevation
amyloid-beta (Aβ) levels and deposition [4]: significant decrease
astrocytes activation [4]: less
learning and memory [4]: significant improvement
synaptic integrity [4]: improved
tau phosphorylation [4]: reduced
retromer levels [5]: increased
retromer-mediated trafficking of cargos [5]: enhanced

AQP4 content (SNX27-retromer [6]): increased
Kidins220 levels (SNX27-retromer [6]): mild effect on elevating
VPS35 levels (SNX27-retromer [6]): mild effect on elevating
SMILES: Cl.Cl.N=C(N)SCc1ccc(CSC(=N)N)s1 [R55, thiophene-2,5-diylbis(methylene) dicarbamimidothioate dihydrochloride]
SNX27, FAM21 and VPS35 localization in endocytic vesicles (SNX27-retromer [2]; neurons pretreated 48 h with 5 μM R55, then excitotoxic NMDA): preserved
NMDA-induced degradation of FAM21 (SNX27-retromer [3]): decreasing
NMDA-induced degradation of GluN2B subunit of the NMDAR (SNX27-retromer [3]): decreasing
NMDA-induced degradation of SNX27 (SNX27-retromer [3]): decreasing
NMDA-induced degradation of SNX27-retromer cargo Kidins220 (SNX27-retromer [3]): decreasing
cleavage of the calpain substrate spectrin into breakdown products (BDPs) (SNX27-retromer [3]): diminishment
retromer levels [5]: increased
retromer-mediated trafficking of cargos [5]: enhanced
neuroprotection (MAP2 immunofluorescence and MTT-viability assays) (primary cortical neurons [7]): strong neuroprotection

SMILES: CO/C1=C\C(C)=C\[C@@H](C)[C@@H](O)[C@@H](C)C/C(C)=C/C=C/[C@H](OC)[C@@H]([C@@H](C)[C@@H](O)[C@H](C)[C@@]2(O)C[C@@H](O)[C@H](C)[C@@H](C(C)C)O2)OC1=O [bafilomycin A1]
AQP4 levels (AQP4; Kidins220^f/f astrocytes): significant increase
loss of SNX27 (AQP4; [8]): not rescued
loss of VPS35 (AQP4; [8]): not rescued
AQP4 levels (AQP4; WT astrocytes): significant increase
